One block for each compound: values may come before it. Calls of active or inactive are those of the source.
What was measured:
[1] = target: Intestinal-type alkaline phosphatase (Mus musculus, UniProt P24822); assay: PubChem AID 488874; format: functional
[2] = target: T1, Intestinal-type alkaline phosphatase (Homo sapiens, UniProt P09923); assay: inhibition of human intestinal alkaline phosphatase – biochemical, luminescent, uHTS hits, set 2, dose response (AID 488793); format: functional
[3] = target: T1, Intestinal-type alkaline phosphatase; assay: Dose Response confirmation of uHTS hits from a small molecule inhibitors of human intestinal alkaline phosphatase via a luminescent assay. [Related pubchem assays (depositor defined):AID2544, AID2574]; format: functional
[4] = target: T2, Alkaline phosphatase, tissue-nonspecific isozyme (Homo sapiens, UniProt P05186); assay: inhibition of tissue-nonspecific alkaline phosphatase – biochemical, dose response (AID 488882); format: functional
T2 sequence (P05186 whole entry): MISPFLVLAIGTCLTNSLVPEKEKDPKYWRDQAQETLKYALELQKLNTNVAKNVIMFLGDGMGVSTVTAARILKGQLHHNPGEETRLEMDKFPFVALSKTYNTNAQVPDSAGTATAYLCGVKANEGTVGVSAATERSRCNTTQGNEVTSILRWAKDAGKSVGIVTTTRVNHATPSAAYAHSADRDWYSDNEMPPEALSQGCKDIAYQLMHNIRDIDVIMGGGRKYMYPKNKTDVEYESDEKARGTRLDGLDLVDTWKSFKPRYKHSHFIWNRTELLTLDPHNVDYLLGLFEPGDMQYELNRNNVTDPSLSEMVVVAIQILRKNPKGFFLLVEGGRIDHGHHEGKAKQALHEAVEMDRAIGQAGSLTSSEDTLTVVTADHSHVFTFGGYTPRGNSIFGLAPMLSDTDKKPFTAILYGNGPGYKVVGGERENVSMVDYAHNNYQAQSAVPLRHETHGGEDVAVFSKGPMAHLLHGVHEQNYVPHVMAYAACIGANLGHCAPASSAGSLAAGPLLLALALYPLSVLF

[5] = target: Dual specificity tyrosine-phosphorylation-regulated kinase 1A (Rattus norvegicus, UniProt Q63470); format: biochemical, Homo sapiens
[6] = target: T3, Rac GTPase-activating protein 1 (Homo sapiens, UniProt Q9H0H5); assay: blockers of MgcRacGAP-driven Rac1 GTP hydrolysis – biochemical, ADP Hunter fluorescence, primary and confirmatory, confirmation (AID 624330); format: functional
T3 sequence (Q9H0H5 whole entry): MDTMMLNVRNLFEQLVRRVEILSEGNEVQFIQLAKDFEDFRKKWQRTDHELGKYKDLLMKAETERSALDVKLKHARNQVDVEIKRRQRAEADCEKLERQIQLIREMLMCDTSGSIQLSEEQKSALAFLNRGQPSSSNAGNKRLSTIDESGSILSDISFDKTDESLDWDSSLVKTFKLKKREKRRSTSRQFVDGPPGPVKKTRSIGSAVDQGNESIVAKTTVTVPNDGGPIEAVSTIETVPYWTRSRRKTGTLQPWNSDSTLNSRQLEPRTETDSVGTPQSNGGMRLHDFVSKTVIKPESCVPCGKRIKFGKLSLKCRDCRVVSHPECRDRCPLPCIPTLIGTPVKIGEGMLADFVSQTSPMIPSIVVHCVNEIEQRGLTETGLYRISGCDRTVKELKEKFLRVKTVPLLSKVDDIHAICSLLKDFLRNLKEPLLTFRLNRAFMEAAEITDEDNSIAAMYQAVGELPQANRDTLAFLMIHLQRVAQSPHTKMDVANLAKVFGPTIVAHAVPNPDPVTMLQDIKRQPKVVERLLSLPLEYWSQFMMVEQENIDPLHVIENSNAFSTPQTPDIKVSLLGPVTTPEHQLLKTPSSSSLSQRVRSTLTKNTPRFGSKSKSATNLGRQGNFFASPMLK

HEK293 = assay: EBV LMP1 TES2 canonical NF-kB signalling blockers – cell-based, HEK293, luciferase, cherry-pick, dose response (AID 588343); format: functional; details: Homo sapiens
[7] = target: Latent membrane protein 1 (Human herpesvirus 4 (strain B95-8), UniProt P03230); assay: LMP1 TES1 pathway selectivity over dsRED control – imaging, HEK293T, dual-color eGFP/dsRED, cherry-picks, selectivity assay for LMP1 NF-kB inhibitor project, dose response (AID 588398); format: functional, cell-based
INS1 = assay: INS-1E survival protection against cytokine death – cell-based, luminescence, retest, dose response (AID 449756); format: functional; details: Rattus norvegicus;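 note: cell death triggered by IL-1 beta plus TNF-alpha plus IFN-gamma mixture; protective hits raise ATP signal compared with cytokine alone wells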
[8] = reduction of Shn3 3'UTR-driven luciferase in osteoblasts – cell-based, Clone20 osteoblasts, firefly luciferase, cherry-picked, dose response (AID 624132); format: functional;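 note: firefly luciferase luminescence from reporter carrying the Shn3 3'UTR in osteoblasts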
[9] = loss of viability in HepG2 cells – cell-based, CellTiter-Glo, cherry-picked, cytotoxicity control for Shn3 inhibitor project, dose response (AID 624134); format: functional
[10] = non-specific 3'UTR reporter inhibition in Clone20-Shn3RL – cell-based, Renilla luciferase, cherry-picked, counter-screen for Shn3 inhibitor project, dose response (AID 624133); format: functional
Cytochrome P450 1A2 = target: T4, Cytochrome P450 1A2 (Homo sapiens, UniProt P05177);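 note: PubChem cytochrome P450 panel assay, CYP1A2 panel member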
T4 sequence (P05177 whole entry): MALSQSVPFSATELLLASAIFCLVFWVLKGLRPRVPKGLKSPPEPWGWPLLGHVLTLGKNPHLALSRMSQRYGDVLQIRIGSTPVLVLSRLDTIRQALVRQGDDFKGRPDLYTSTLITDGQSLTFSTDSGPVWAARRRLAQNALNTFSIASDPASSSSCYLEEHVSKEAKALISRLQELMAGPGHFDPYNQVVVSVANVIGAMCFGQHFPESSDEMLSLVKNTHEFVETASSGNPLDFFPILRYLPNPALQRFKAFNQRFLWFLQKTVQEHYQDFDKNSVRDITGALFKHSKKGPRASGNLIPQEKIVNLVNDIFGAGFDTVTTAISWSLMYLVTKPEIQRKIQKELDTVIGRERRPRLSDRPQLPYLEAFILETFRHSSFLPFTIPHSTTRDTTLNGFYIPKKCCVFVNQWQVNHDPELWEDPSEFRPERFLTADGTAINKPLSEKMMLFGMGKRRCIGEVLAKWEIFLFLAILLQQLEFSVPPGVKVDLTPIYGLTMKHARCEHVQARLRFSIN

Cytochrome P450 3A4 = Cytochrome P450 3A4 (Homo sapiens, UniProt P08684);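 note: CYP3A4 tested as one member of a cytochrome P450 panel screen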
Cytochrome P450 2C9 = Cytochrome P450 2C9 (Homo sapiens, UniProt P11712)
Cytochrome P450 2D6 = Cytochrome P450 2D6 (Homo sapiens, UniProt P10635);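 note: CYP2D6 member of a cytochrome P450 panel assay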
Chain of Cytochrome P450 2D6 (P10635 whole entry): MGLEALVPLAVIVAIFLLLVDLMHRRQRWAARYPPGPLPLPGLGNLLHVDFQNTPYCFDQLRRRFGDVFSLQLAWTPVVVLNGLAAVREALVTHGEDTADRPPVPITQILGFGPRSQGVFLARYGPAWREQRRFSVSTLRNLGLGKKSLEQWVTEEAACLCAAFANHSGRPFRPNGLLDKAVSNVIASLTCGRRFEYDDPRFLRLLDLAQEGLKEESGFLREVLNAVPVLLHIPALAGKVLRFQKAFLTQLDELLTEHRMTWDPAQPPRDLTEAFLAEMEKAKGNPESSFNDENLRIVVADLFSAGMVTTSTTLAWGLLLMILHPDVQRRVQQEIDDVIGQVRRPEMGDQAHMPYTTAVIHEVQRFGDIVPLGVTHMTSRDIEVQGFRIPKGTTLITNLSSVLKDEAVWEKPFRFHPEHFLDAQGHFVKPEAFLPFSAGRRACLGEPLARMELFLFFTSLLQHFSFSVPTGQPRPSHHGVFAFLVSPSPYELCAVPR

T1 sequence (P09923 whole entry): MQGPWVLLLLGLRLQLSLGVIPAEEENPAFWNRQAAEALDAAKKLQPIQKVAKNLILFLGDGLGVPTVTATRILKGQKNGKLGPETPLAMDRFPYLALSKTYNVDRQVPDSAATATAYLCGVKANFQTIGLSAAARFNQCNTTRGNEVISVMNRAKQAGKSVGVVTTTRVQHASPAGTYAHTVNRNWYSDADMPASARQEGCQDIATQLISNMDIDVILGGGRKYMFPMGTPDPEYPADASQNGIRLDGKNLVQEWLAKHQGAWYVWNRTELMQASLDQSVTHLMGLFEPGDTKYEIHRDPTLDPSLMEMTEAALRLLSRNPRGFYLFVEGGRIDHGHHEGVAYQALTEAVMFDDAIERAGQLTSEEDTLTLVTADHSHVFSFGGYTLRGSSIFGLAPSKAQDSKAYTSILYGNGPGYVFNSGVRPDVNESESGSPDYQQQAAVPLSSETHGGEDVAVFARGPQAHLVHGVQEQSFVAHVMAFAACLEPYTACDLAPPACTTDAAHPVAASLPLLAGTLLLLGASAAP
Chain of Intestinal-type alkaline phosphatase (Mus musculus, UniProt P24822) (P24822 whole entry): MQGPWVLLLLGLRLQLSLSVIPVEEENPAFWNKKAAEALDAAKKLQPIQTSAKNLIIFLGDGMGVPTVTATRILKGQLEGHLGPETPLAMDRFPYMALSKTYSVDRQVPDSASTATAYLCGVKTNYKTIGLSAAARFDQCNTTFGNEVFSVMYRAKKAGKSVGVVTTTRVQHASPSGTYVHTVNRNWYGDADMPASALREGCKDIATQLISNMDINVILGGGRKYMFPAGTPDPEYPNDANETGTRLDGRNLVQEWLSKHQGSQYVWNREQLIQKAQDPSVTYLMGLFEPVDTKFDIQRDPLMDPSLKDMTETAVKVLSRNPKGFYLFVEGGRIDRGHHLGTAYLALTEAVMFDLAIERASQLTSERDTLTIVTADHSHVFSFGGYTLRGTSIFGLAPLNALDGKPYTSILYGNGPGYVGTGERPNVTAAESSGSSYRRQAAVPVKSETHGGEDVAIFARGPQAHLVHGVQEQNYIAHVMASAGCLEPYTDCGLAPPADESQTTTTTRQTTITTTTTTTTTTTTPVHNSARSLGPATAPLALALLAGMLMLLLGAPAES
Chain of Cytochrome P450 2C9 (P11712 whole entry): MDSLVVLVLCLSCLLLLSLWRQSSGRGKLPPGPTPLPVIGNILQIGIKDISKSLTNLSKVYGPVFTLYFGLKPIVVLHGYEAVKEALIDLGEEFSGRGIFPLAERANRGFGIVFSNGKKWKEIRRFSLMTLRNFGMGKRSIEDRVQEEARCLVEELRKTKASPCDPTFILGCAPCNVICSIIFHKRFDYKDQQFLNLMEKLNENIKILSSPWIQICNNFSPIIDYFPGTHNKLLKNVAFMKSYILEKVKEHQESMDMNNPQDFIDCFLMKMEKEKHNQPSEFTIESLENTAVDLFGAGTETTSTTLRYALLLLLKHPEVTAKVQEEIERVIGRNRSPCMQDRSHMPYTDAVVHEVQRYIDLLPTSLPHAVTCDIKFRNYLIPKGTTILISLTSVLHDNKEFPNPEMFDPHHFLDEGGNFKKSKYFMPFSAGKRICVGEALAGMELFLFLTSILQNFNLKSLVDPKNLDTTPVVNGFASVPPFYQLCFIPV
Chain of Latent membrane protein 1 (P03230 whole entry): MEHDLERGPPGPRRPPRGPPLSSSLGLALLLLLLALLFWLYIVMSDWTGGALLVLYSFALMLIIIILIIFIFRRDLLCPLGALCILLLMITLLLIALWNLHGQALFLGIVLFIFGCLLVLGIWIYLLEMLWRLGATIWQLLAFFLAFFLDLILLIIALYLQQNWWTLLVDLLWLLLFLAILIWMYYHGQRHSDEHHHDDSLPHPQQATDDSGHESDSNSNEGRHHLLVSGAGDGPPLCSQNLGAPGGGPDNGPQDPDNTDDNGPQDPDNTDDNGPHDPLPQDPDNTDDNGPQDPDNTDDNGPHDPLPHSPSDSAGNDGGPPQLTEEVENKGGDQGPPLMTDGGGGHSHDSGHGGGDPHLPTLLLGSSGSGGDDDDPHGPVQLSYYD
Chain of Cytochrome P450 3A4 (P08684 whole entry): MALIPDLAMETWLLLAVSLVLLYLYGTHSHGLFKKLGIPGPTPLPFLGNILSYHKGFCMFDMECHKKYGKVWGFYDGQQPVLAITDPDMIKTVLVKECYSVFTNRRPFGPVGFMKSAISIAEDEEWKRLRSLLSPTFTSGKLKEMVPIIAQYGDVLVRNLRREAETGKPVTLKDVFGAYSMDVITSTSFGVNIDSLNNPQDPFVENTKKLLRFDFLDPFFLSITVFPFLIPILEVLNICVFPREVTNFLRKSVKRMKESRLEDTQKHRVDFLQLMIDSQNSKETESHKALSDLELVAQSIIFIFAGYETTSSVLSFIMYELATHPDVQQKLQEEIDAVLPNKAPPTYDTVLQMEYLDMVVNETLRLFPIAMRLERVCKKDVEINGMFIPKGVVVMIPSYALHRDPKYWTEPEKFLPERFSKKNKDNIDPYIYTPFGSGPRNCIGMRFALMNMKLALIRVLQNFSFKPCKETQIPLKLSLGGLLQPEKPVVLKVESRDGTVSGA

IC50 [1]: 15 µM (active) | IC50 [2]: 15.6 µM (active) | IC50 [3]: 12.7 µM (inactive) | IC50 [4]: 15.6 µM (active) | AC50 [5]: 1.7 µM (active) | IC50 [6]: 46.8 µM (active)
SMILES: COc1ccc(C=C2C(=O)c3ccccc3C2=O)cc1O

SMILES: CC(=O)NC(c1cccs1)c1cc(F)c2cccnc2c1O (stereo unspecified)
AC50 (HEK293): 7.74 µM (active) | AC50 [7]: 13 µM (active) | AC50 (INS1): 1.58 µM (active) | AC50 [8]: 1.67 µM (active) | AC50 [9]: 2.94 µM (active) | AC50 [10]: 5.16 µM (active)

AC50 (Cytochrome P450 1A2): 28.2 µM (inconclusive) | AC50 (Cytochrome P450 3A4): 17.8 µM (inconclusive) | AC50 (Cytochrome P450 2C9): 0.1 µM (inconclusive) | AC50 (Cytochrome P450 2D6): inconclusive
SMILES: O=P(O)(CP(=O)(c1ccccc1)c1ccccc1)c1ccccc1O

From ChEMBL document CHEMBL1201862, “PubChem BioAssay data set” (2004)
